We go through eleven molecules from ChEMBL document CHEMBL1201862, “PubChem BioAssay data set” (2004).

Where “and” joins values, the source holds several entries; their conditions need not be identical. Identical values can stand only once.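 Tested at 5 concentrations; 48 h exposure; 96-well plates; endpoints linearly interpolated, else capped at highest concentration. Abbreviation: GI50, concentration required for 50% inhibition of growth.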 Calls of active or inactive are those of the source. Cut-off read from the data, not from the text of the source: active = GI50 up to about 1.1 µM and inactive = higher.

Among the test systems are RXF 393; K562; PC-3; A549; BT-549; HOP-92; A498; UO-31; SK-OV-3; OVCAR-5; OVCAR-4; DU-145; HT-29; SK-MEL-28; SF-268; SK-MEL-2; MDA-MB-231; T47D; MOLT-4; KM12.
Test in all cases: NCI-60 cell line screen, 48 h

As to `CC1=NN2C=Nc3c(c(-c4ccc(Cl)cc4)cn3-c3ccc(C)cc3)C2N1` (stereo not given), the GI50 in the experiment on RXF 393 was 42.5 µM (inactive); in the experiment on K562 it was > 100 µM (inactive); with PC-3, 32.9 µM (inactive); with A549 it was > 100 µM (inactive); in the experiment on BT-549 it was > 100 µM (inactive); with HOP-92, 17.1 µM (inactive). The GI50 with A498 was > 100 µM (inactive); in the experiment on UO-31 it was > 100 µM (inactive); with SK-OV-3, 61.9 µM (inactive); in the experiment with OVCAR-5, > 100 µM (inactive); in the experiment with OVCAR-4, 6.24 µM (inactive); in the experiment with DU-145 it was > 100 µM (inactive). The GI50 with HT-29 is 64.4 µM (inactive); with SK-MEL-28, > 100 µM (inactive); with SF-268, 71.1 µM (inactive); in the experiment on SK-MEL-2, > 100 µM (inactive); in the experiment on MDA-MB-231 it was 71.1 µM (inactive).
Consider `C/C(=C\COP(=O)(O)OP(=O)(O)O)CCCCCCOCc1ccccc1`, for which the GI50 in the experiment on RXF 393, in the experiment with K562, with A549, in the experiment on BT-549, in the experiment on HOP-92 and with A498 was > 100 µM (inactive) each time. Also, the GI50 in the experiment on T47D, in the experiment on UO-31, in the experiment with SK-OV-3, in the experiment with MOLT-4, with OVCAR-5 and in the experiment on OVCAR-4 was > 100 µM (inactive) in each case. Also, the GI50 with DU-145, in the experiment with HT-29, in the experiment with SK-MEL-28, in the experiment with SF-268, in the experiment with MDA-MB-231 and with KM12 was > 100 µM (inactive) in each case.
On to `COC(=O)/C=C\n1c(C)cc(=O)[nH]c1=O`, for which the GI50 in the experiment on RXF 393, with K562, with PC-3, in the experiment with A549, in the experiment on BT-549 and with HOP-92 was > 100 µM (inactive) throughout. Moreover, the GI50 with A498 was > 100 µM (inactive); in the experiment on T47D it was > 100 µM (inactive); in the experiment on UO-31, > 100 µM (inactive); in the experiment with SK-OV-3, 67.5 µM (inactive); in the experiment on MOLT-4, > 100 µM (inactive); in the experiment with OVCAR-5, > 100 µM (inactive). The GI50 in the experiment with OVCAR-4, in the experiment with HT-29, with SK-MEL-28, with SF-268, with SK-MEL-2 and in the experiment on KM12 was > 100 µM (inactive) in each case.
Regarding `O=C1N/C(=N/N=C/C(O)C(O)C(O)CO)N/C1=C\c1c[nH]c2ccccc12` (stereo not given), the GI50 in the experiment on RXF 393, in the experiment with K562, with A549, in the experiment with BT-549, with HOP-92 and with T47D was > 100 µM (inactive) throughout. Moreover, the GI50 in the experiment with SK-OV-3, with MOLT-4, with OVCAR-5, in the experiment with OVCAR-4, in the experiment with DU-145 and with HT-29 was > 100 µM (inactive) throughout. Further, the GI50 in the experiment on SK-MEL-28, in the experiment on SF-268, with MDA-MB-231 and with KM12 was > 100 µM (inactive) each time.
As for `COC1OC(COC(=O)NCCCCC(=O)C(F)(F)C(F)(F)C(F)(F)C(F)(F)C(F)(F)C(F)(F)C(F)(F)F)C(O)C(O)C1O` (stereo not given), the GI50 was 13.6 µM (inactive) and 15.1 µM (inactive) in the experiment on RXF 393; 10.6 µM (inactive) and 16 µM (inactive) in the experiment on K562; 12.9 µM (inactive) and 13.6 µM (inactive) in the experiment on PC-3; 17.9 µM (inactive) and 15.6 µM (inactive) with A549; 17.6 µM (inactive) and 17.4 µM (inactive) in the experiment with BT-549; 19.6 µM (inactive) and 15.2 µM (inactive) in the experiment with T47D. The GI50 in the experiment with UO-31 was 16.8 µM (inactive) and 17.1 µM (inactive); in the experiment on SK-OV-3 it was 14.2 µM (inactive) and 15.8 µM (inactive); in the experiment with OVCAR-5, 17.8 µM (inactive) and 17.5 µM (inactive); in the experiment with OVCAR-4 it was 15 µM (inactive) and 16.7 µM (inactive); in the experiment with HT-29, 15.8 µM (inactive) and 13.5 µM (inactive); in the experiment with SK-MEL-28 it was 17.3 µM (inactive) and 16.7 µM (inactive). Further, the GI50 with SF-268 is 15.7 µM (inactive) and 18.2 µM (inactive); in the experiment on SK-MEL-2, 22.2 µM (inactive) and 21.8 µM (inactive); in the experiment with MDA-MB-231, 23.1 µM (inactive) and 23.9 µM (inactive); in the experiment on KM12, 17.5 µM (inactive) and 18.7 µM (inactive).
For `CSCCCNC(=O)c1csc(-c2csc(CCNC(=O)CNC(=O)OC(C)(C)C)n2)n1`, the GI50 was > 100 µM (inactive) with RXF 393; > 100 µM (inactive) in the experiment with K562; > 100 µM (inactive) with PC-3; > 100 µM (inactive) with A549; 35.4 µM (inactive) with BT-549; > 100 µM (inactive) in the experiment with HOP-92. In addition, the GI50 in the experiment on A498 was > 100 µM (inactive); in the experiment on UO-31, > 100 µM (inactive); with SK-OV-3, > 100 µM (inactive); with MOLT-4, 40.7 µM (inactive); with OVCAR-5 it was > 100 µM (inactive); in the experiment on OVCAR-4 it was > 100 µM (inactive). For the same molecule, the GI50 in the experiment with DU-145, in the experiment on HT-29, in the experiment with SK-MEL-28, in the experiment with SF-268, in the experiment with SK-MEL-2 and in the experiment on MDA-MB-231 was > 100 µM (inactive) in each case. For the same molecule, in the experiment on KM12, the GI50 was > 100 µM (inactive).
`CN(C)CCNC(=O)c1cccc2c1Oc1c(cccc1[N+](=O)[O-])O2`: the GI50 with RXF 393 was 2.08 µM (inactive); in the experiment on K562 it was 1.45 µM (inactive); in the experiment on PC-3, 1.95 µM (inactive); with A549, 0.458 µM (active); in the experiment with BT-549, 1.9 µM (inactive); in the experiment on A498, 1.37 µM (inactive). The GI50 was 0.323 µM (active) in the experiment with T47D; 0.885 µM (active) in the experiment with UO-31; 0.298 µM (active) in the experiment with MOLT-4; 2.18 µM (inactive) with OVCAR-5; 5.04 µM (inactive) with OVCAR-4; 0.57 µM (active) in the experiment on DU-145. The GI50 was 1.41 µM (inactive) in the experiment on HT-29; 2.02 µM (inactive) in the experiment with SK-MEL-28; 2.97 µM (inactive) in the experiment on SF-268; 0.29 µM (active) in the experiment on SK-MEL-2; 1.26 µM (inactive) in the experiment on KM12.
Take `C[C@@H]1CC[C@@H](C)[C@](C)(CCc2ccoc2)C/C=C\C=C/1C(=O)O`: the GI50 in the experiment on RXF 393, in the experiment with K562, with PC-3, in the experiment with A549, in the experiment with BT-549 and with HOP-92 was > 50 µM (inactive) in each case. Besides, the GI50 was > 50 µM (inactive) in the experiment on A498; > 50 µM (inactive) with UO-31; > 50 µM (inactive) in the experiment on SK-OV-3; 31.8 µM (inactive) in the experiment on MOLT-4; > 50 µM (inactive) in the experiment with OVCAR-5; > 50 µM (inactive) in the experiment with OVCAR-4. Besides, the GI50 in the experiment with HT-29, in the experiment on SK-MEL-28, in the experiment on SK-MEL-2, in the experiment with MDA-MB-231 and in the experiment with KM12 was > 50 µM (inactive) each time.
Turning to `CCOC(=O)CCC(C(=O)OCC)n1nnc2cc(Nc3c(C)[n+]([O-])c4cc(F)c(OCC)cc4[n+]3[O-])ccc21` (stereo not given), the GI50 in the experiment with RXF 393 was 14 µM (inactive); in the experiment with K562 it was > 100 µM (inactive); with PC-3, > 100 µM (inactive); with A549, > 100 µM (inactive); in the experiment on BT-549, > 100 µM (inactive); in the experiment on HOP-92, 25.6 µM (inactive). Also, the GI50 in the experiment with A498, in the experiment on T47D, in the experiment on UO-31, in the experiment on SK-OV-3, with MOLT-4 and in the experiment with OVCAR-5 was > 100 µM (inactive) throughout. Also, the GI50 in the experiment on OVCAR-4 was > 100 µM (inactive); with DU-145 it was > 100 µM (inactive); in the experiment on HT-29, > 100 µM (inactive); in the experiment with SF-268, 25.5 µM (inactive); in the experiment with SK-MEL-2, 83.4 µM (inactive); in the experiment with KM12, > 100 µM (inactive).
Take `O=c1[nH]nc(-c2ccccc2)n1-n1cnnc1`: the GI50 with RXF 393, with K562, with PC-3, with A549, in the experiment with BT-549 and in the experiment on HOP-92 was > 100 µM (inactive) each time. The GI50 in the experiment with A498, in the experiment with T47D, in the experiment on UO-31, in the experiment with SK-OV-3, with MOLT-4 and in the experiment with OVCAR-5 was > 100 µM (inactive) each time. The GI50 with OVCAR-4, in the experiment with HT-29, with SF-268, with SK-MEL-2, with MDA-MB-231 and with KM12 was > 100 µM (inactive) in each case.
For `CN(C)C(=N)/N=C(\N)Nc1cccc(Cl)c1`, the GI50 was > 100 µM (inactive) with K562; 41.8 µM (inactive) with PC-3; > 100 µM (inactive) with A549; 19.5 µM (inactive) with BT-549; 24.8 µM (inactive) in the experiment with T47D; 78 µM (inactive) with UO-31. The GI50 with SK-OV-3, in the experiment on MOLT-4, with OVCAR-5, in the experiment with OVCAR-4, in the experiment with HT-29 and with SK-MEL-28 was > 100 µM (inactive) each time. For the same molecule, the GI50 was 35.4 µM (inactive) in the experiment with SF-268, > 100 µM (inactive) in the experiment on SK-MEL-2, 46.7 µM (inactive) with MDA-MB-231 and > 100 µM (inactive) with KM12.
